Experimental data: US12708602B2, “Fermentation extracts, cosmetic composition and manufacturing method of fermentation extracts” (bioMOA Medical, Inc., priority 2023, dated 2026)

Conditions: dissolved in purified water (FIG. 3)

Q: For `N[C@@H](CCC(=O)N[C@@H](CS)C(=O)NCC(=O)O)C(=O)O` [glutathione powder, glutathione], which precipitation is on record?
A: precipitation occurred from the first day
